According to patent US9221814B2, “Heterocyclic guanidine F1F0-atpase inhibitors and therapeutic uses thereof” (Lycera Corporation, priority 2012, dated 2015):
Where two headings read alike, the source gives them in different places.

Legend:
F1F0-ATPase = target: T1, F1F0-ATPase (Bos taurus, UniProt P13621); test: Inhibition of F1F0-ATPase activity in synthesizing ATP (ATP synthesis inhibition); type: biochemical; conditions: detection limit IC50=16 μM, read-out: ATP Syn IC50
T1 construct: from tissue
Method: (§1) Exemplary compounds described in above Examples were tested for activity against F1F0-ATPase by measuring the ability of the compounds to inhibit ATP synthesis. In addition, the compounds were assessed for cytotoxicity in Ramos cells. Inhibition of F1F0-ATPase activity in synthesizing ATP and cytotoxicity in Ramos cells were measured according to the procedures described in K. M. Johnson et al. Chemistry & Biology 2005, 12, 485-496.

Ramos cells = test: Cytotoxicity in Ramos cells; type: cell-based; conditions: detection limit EC50=16 μM, read-out: Ramos Cell EC50
Method: as §1

SMILES	IC50 (F1F0-ATPase)	EC50 (Ramos cells; Homo sapiens)	EC50 (Ramos cells)
Cn1cc(C(=O)/N=C(/Nc2cc(-c3ccc(O)cc3F)n[nH]2)Nc2ccccc2F)c(C(F)(F)F)n1 [Compound 1, N-(((3-(2-Fluoro-4-hydroxyphenyl)-1H-pyrazol-5-yl)amino)((2-fluorophenyl)amino)methylene)-1-methyl-3-(trifluoromethyl)-1H-pyrazole-4-carboxamide]	5 to 16 µM	< 5 µM	
CCOC(=O)NC1CCCC(N/C(=N\C(=O)c2cc(C)oc2C(F)(F)F)Nc2cccc(F)c2)C1 (stereo not drawn) [Compound 2, Ethyl (3-(3-(3-fluorophenyl)-2-(5-methyl-2-(trifluoromethyl)furan-3-carbonyl)guanidino)cyclohexyl)carbamate]	> 16 µM	5 to 16 µM	
CC(C)CN/C(=N/C(=O)c1cn(C)nc1C(F)(F)F)Nc1cc(-c2ccc(O)c(F)c2)n[nH]1 [Compound 3, N-(((3-(3-Fluoro-4-hydroxyphenyl)-1H-pyrazol-5-yl)amino)(isobutylamino)methylene)-1-methyl-3-(trifluoromethyl)-1H-pyrazole-4-carboxamide]	5 to 16 µM	> 16 µM	
CC(C)CN/C(=N/C(=O)c1cn(C)nc1C(F)(F)F)Nc1cc(-c2ccc(O)cc2F)n[nH]1 [Compound 4, N-(((3-(2-Fluoro-4-hydroxyphenyl)-1H-pyrazol-5-yl)amino)(isobutylamino)methylene)-1-methyl-3-(trifluoromethyl)-1H-pyrazole-4-carboxamide]	> 16 µM	> 16 µM	
Cn1cc(C(=O)/N=C(\Nc2cc(-c3ccc(O)c(F)c3)n[nH]2)Nc2ccc(F)c(O)c2F)c(C(F)(F)F)n1 [Compound 5, N-(((2,4-Difluoro-3-hydroxyphenyl)amino)((3-(3-fluoro-4-hydroxyphenyl)-1H-pyrazol-5-yl)amino)methylene)-1-methyl-3-(trifluoromethyl)-1H-pyrazole-4-carboxamide]	5 to 16 µM	5 to 16 µM	
CCOCCCN/C(=N\C(=O)c1cnoc1C)Nc1cc(-c2cc(F)cc(F)c2)n[nH]1 [Compound A-1]	> 16 µM		> 16 µM
Cc1nn(C)cc1C(=O)/N=C(\Nc1cc(F)cc(Cl)c1)Nc1cc(-c2ccc(O)cc2F)n[nH]1 [Compound A-2]	5 to 16 µM		> 16 µM
Cn1cc(C(=O)/N=C(/Nc2cc(-c3ccc(O)cc3F)n[nH]2)Nc2ccccc2Cl)c(C(F)(F)F)n1 [Compound A-3]	5 to 16 µM		< 5 µM
Cn1cc(C(=O)N=C(Nc2cc(-c3ccc(O)cc3F)n[nH]2)Nc2ccc(F)cc2F)c(C(F)(F)F)n1 [Compound A-4]	5 to 16 µM	< 5 µM	
Cn1cc(C(=O)/N=C(\Nc2cc(F)cc(Cl)c2)Nc2cc(-c3ccc(O)cc3F)n[nH]2)c(C(F)(F)F)n1 [Compound A-5]	< 5 µM		< 5 µM
CSc1ccccc1N/C(=N\C(=O)c1cn(C)nc1C(F)(F)F)Nc1cc(-c2ccc(O)cc2F)n[nH]1 [Compound A-6]	5 to 16 µM		< 5 µM
CSc1cccc(N/C(=N\C(=O)c2cn(C)nc2C(F)(F)F)Nc2cc(-c3ccc(O)cc3F)n[nH]2)c1 [Compound A-7]	5 to 16 µM		< 5 µM
CSc1ccc(N/C(=N\C(=O)c2cn(C)nc2C(F)(F)F)Nc2cc(-c3ccc(O)cc3F)n[nH]2)cc1 [Compound A-8]	5 to 16 µM		< 5 µM
Cc1nc(C(=O)/N=C(/Nc2ccc(F)cc2)Nc2cccc(C(F)(F)F)c2)cs1 [Compound A-10]		> 16 µM	
Cc1nc(C(=O)/N=C(\Nc2cccc(C(F)(F)F)c2)Nc2ccc3[nH]ncc3c2)cs1 [Compound A-11]		> 16 µM	
Cc1nc(C(=O)/N=C(\Nc2cccc(C(F)(F)F)c2)Nc2ccc3[nH]c(=O)oc3c2)cs1 [Compound A-12]		> 16 µM	
Cc1nc(C(=O)/N=C(/Nc2ccc(N3CCC(O)CC3)cc2)Nc2cccc(C(F)(F)F)c2)cs1 [Compound A-13]		> 16 µM	
Cc1nc(C(=O)/N=C(/Nc2ccc(F)cc2)Nc2ccccc2C(C)(C)C)cs1 [Compound A-14]		> 16 µM	
Cc1nc(C(=O)/N=C(/Nc2ccc3[nH]ncc3c2)Nc2ccccc2C(C)(C)C)cs1 [Compound A-15]		5 to 16 µM	
Cc1nc(C(=O)/N=C(/Nc2ccc3[nH]c(=O)oc3c2)Nc2ccccc2C(C)(C)C)cs1 [Compound A-16]		> 16 µM	
Cc1nc(C(=O)/N=C(/Nc2ccc(N3CCC(O)CC3)cc2)Nc2ccccc2C(C)(C)C)cs1 [Compound A-17]		> 16 µM	
Cc1nc(C(=O)/N=C(/Nc2ccc(F)cc2)Nc2ccc(Cl)cc2)cs1 [Compound A-18]		> 16 µM	
Cc1nc(C(=O)/N=C(\Nc2ccc(Cl)cc2)Nc2ccc3[nH]ncc3c2)cs1 [Compound A-19]		> 16 µM	
Cc1nc(C(=O)/N=C(\Nc2ccc(Cl)cc2)Nc2ccc3[nH]c(=O)oc3c2)cs1 [Compound A-20]		> 16 µM	
Cc1nc(C(=O)/N=C(\Nc2ccc(Cl)cc2)Nc2ccc(N3CCC(O)CC3)cc2)cs1 [Compound A-21]		> 16 µM	
Cc1nc(C(=O)/N=C(/Nc2ccc(F)cc2)Nc2cccc(Cl)c2)cs1 [Compound A-22]		> 16 µM	
Cc1nc(C(=O)/N=C(\Nc2cccc(Cl)c2)Nc2ccc3[nH]ncc3c2)cs1 [Compound A-23]		> 16 µM	
Cc1nc(C(=O)/N=C(\Nc2cccc(Cl)c2)Nc2ccc3[nH]c(=O)oc3c2)cs1 [Compound A-24]		> 16 µM	
Cc1oncc1C(=O)/N=C(/NCc1ccc(F)cc1Cl)Nc1cc(-c2ccc(F)cc2)n[nH]1 [Compound A-37]			5 to 16 µM

Continued, in another order:

IC50 (F1F0-ATPase)	SMILES	EC50 (Ramos cells; Homo sapiens)	EC50 (Ramos cells)
< 5 µM	Cn1cc(C(=O)/N=C(/Nc2cc(-c3cc(F)cc(F)c3)n[nH]2)NC(C)(C)C)c(C(F)(F)F)n1 [Compound A-25]		< 5 µM
< 5 µM	CC(C)CN/C(=N\C(=O)c1cn(C)nc1C(F)(F)F)Nc1cc(-c2cc(F)cc(F)c2)n[nH]1 [Compound A-26]		< 5 µM
< 5 µM	Cn1cc(C(=O)/N=C(/Nc2cc(-c3cc(F)cc(F)c3)n[nH]2)NC2CCCC2)c(C(F)(F)F)n1 [Compound A-27]		< 5 µM
< 5 µM	Cn1cc(C(=O)/N=C(/Nc2cc(-c3cc(F)cc(F)c3)n[nH]2)NC2CCC2)c(C(F)(F)F)n1 [Compound A-28]		< 5 µM
< 5 µM	CCOCCCN/C(=N\C(=O)c1cn(C)nc1C(F)(F)F)Nc1cc(-c2cc(F)cc(F)c2)n[nH]1 [Compound A-29]		< 5 µM
< 5 µM	CCOCCN/C(=N\C(=O)c1cn(C)nc1C(F)(F)F)Nc1cc(-c2cc(F)cc(F)c2)n[nH]1 [Compound A-30]		< 5 µM
< 5 µM	Cn1cc(C(=O)/N=C(\NCC(C)(C)C)Nc2cc(-c3cc(F)cc(F)c3)n[nH]2)c(C(F)(F)F)n1 [Compound A-31]		< 5 µM
5 to 16 µM	COC[C@H](C)N/C(=N\C(=O)c1cn(C)nc1C(F)(F)F)Nc1cc(-c2cc(F)cc(F)c2)n[nH]1 [Compound A-32]		5 to 16 µM
< 5 µM	CCC(C)N/C(=N\C(=O)c1cn(C)nc1C(F)(F)F)Nc1cc(-c2cc(F)cc(F)c2)n[nH]1 (stereo not drawn) [Compound A-33]		< 5 µM
< 5 µM	O=C(N=C(Nc1cc(F)cc(Cl)c1)Nc1cc(C(F)(F)F)n[nH]1)c1nccs1 [Compound A-34]	< 5 µM	
< 5 µM	CC(C)(C)N/C(=N/C(=O)c1nccs1)Nc1cc(C(F)(F)F)n[nH]1 [Compound A-35]		5 to 16 µM
< 5 µM	Cc1cc(C(=O)/N=C(/Nc2cc(F)cc(Cl)c2)Nc2cc(C(F)(F)F)n[nH]2)on1 [Compound A-36]		< 5 µM
5 to 16 µM	CC(C)(C)N/C(=N/C(=O)c1ccno1)Nc1cc(-c2ccc(F)cc2)n[nH]1 [Compound A-38]		5 to 16 µM
5 to 16 µM	Cc1ccccc1CN/C(=N/C(=O)c1ccno1)Nc1cc(-c2ccc(F)cc2)n[nH]1 [Compound A-39]		
5 to 16 µM	Cc1cc(C(=O)/N=C(\Nc2cc(-c3ccc(F)cc3)n[nH]2)NC(C)(C)C)on1 [Compound A-40]		> 16 µM
5 to 16 µM	Cc1cc(C(=O)N=C(Nc2cc(-c3ccc(F)cc3)[nH]n2)NC(C)(C)C)no1 [Compound A-41]		
< 5 µM	Cc1cc(C(=O)/N=C(/NCc2ccccc2C)Nc2cc(-c3ccc(F)cc3)n[nH]2)no1 [Compound A-42]		5 to 16 µM
< 5 µM	Cn1nc(C(C)(C)C)cc1C(=O)/N=C(\Nc1cc(-c2ccc(F)cc2)n[nH]1)NC(C)(C)C [Compound A-43]		
< 5 µM	Cc1ccccc1CN/C(=N/C(=O)c1cc(C(C)(C)C)nn1C)Nc1cc(-c2ccc(F)cc2)n[nH]1 [Compound A-44]		< 5 µM
5 to 16 µM	COc1cccc(CN/C(=N/C(=O)c2ccn(C)n2)Nc2cc(-c3ccc(F)cc3)n[nH]2)c1 [Compound A-45]		5 to 16 µM
< 5 µM	COc1cccc(CN/C(=N/C(=O)c2cc(C(C)(C)C)nn2C)Nc2cc(-c3ccc(F)cc3)n[nH]2)c1 [Compound A-46]		< 5 µM
5 to 16 µM	Cc1nnsc1C(=O)/N=C(\Nc1cc(-c2ccc(F)cc2)n[nH]1)NC(C)(C)C [Compound A-47]		< 5 µM
> 16 µM	Cc1cc(C(=O)/N=C(\Nc2cc(-c3ccc(F)cc3)n[nH]2)NC(C)C)no1 [Compound A-48]		> 16 µM
< 5 µM	CC(C)N/C(=N/C(=O)c1cc(C(C)(C)C)nn1C)Nc1cc(-c2ccc(F)cc2)n[nH]1 [Compound A-49]		< 5 µM
< 5 µM	COC[C@H](C)N/C(=N/C(=O)c1cc(C(C)(C)C)nn1C)Nc1cc(-c2ccc(F)cc2)n[nH]1 [Compound A-50]		< 5 µM
< 5 µM	Cn1nc(C(C)(C)C)cc1C(=O)/N=C(\Nc1cc(-c2ccc(F)cc2)n[nH]1)NC1CCCC1 [Compound A-51]		< 5 µM
> 16 µM	COC[C@H](C)N/C(=N/C(=O)c1cc(C)on1)Nc1cc(-c2ccc(F)cc2)n[nH]1 [Compound A-52]		> 16 µM
